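96-well plates; 48 h exposure; 5 concentrations. Endpoints by linear interpolation between flanking doses. Not reached: highest tested concentration assigned. GI50 = concentration required for 50% inhibition of growth. At the TGI there is no net growth.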 Where a SMILES comes first, the peptide text is derived from it. Bridges are numbered along the chain shown (N, C = ends).
Experiments:
Experiment in all cases: growth of human tumour cells (NCI), 48 h
U251 CNS = tested on: U251 CNS
NCI/ADR-RES ovarian = tested on: NCI/ADR-RES ovarian
HL-60(TB) leukemia = tested on: HL-60(TB) leukemia
HOP-62 NSCLC = tested on: HOP-62 NSCLC
786-0 renal = tested on: 786-0 renal
CCRF-CEM leukemia = tested on: CCRF-CEM leukemia
RXF 393 renal = tested on: RXF 393 renal

Structure (SMILES) | GI50 (U251 CNS) | TGI (U251 CNS) | GI50 (NCI/ADR-RES ovarian) | TGI (NCI/ADR-RES ovarian) | GI50 (HL-60(TB) leukemia) | TGI (HL-60(TB) leukemia) | GI50 (HOP-62 NSCLC) | TGI (HOP-62 NSCLC) | GI50 (786-0 renal) | TGI (786-0 renal) | GI50 (CCRF-CEM leukemia) | TGI (CCRF-CEM leukemia) | GI50 (RXF 393 renal) | TGI (RXF 393 renal)
COc1cc(C(=O)c2cnc(-c3ccc4cc[nH]c4c3)[nH]2)cc(OC)c1OC | 0.0393 µM | 11 µM | 0.0371 µM | 56 µM | 0.0224 µM | 0.0535 µM | 0.0354 µM | 6.5 µM | 0.0419 µM | 2.34 µM | 0.0374 µM | > 44.6 µM |  | 
COc1ccc2c(c1)C(=O)/C(=C/c1cccc(OCC(=O)c3ccc([N+](=O)[O-])cc3)c1)CO2 | 1.6 µM | 3.16 µM | 2.03 µM | 5.02 µM | 2.34 µM | 12.8 µM | 2.13 µM | 5.35 µM | 2 µM | 4.83 µM | 2.32 µM |  | 1.89 µM | 4.32 µM
CC1OC(OC2C(O)C(OCCc3ccc(O)c(O)c3)OC(CO)C2OC(=O)/C=C/c2ccc(O)c(O)c2)C(O)C(O)C1O (stereo not given) |  |  | > 100 µM | > 100 µM | 14.9 µM | > 100 µM | > 100 µM | > 100 µM | 14.5 µM | 36.3 µM |  |  |  | 
N#Cc1ccc(O)c(C2=NCC(c3ccc(-c4ccccc4)cc3)O2)c1 (stereo not given) | 0.326 µM | 11.6 µM | 0.148 µM | 5.7 µM | 0.416 µM | 3.73 µM | 0.41 µM | 10.9 µM | 0.626 µM | 11.9 µM | 0.264 µM | > 100 µM | 0.487 µM | 5.55 µM
COc1ccccc1-c1ccc2c(N)c(C(=O)c3ccc4c(c3)OCO4)sc2n1 |  |  | 4.13 µM | 16.7 µM | 4.83 µM | > 100 µM | 3.52 µM | 14.7 µM | 2.78 µM | 11.3 µM | 5.27 µM | > 100 µM | 3.01 µM | 11.2 µM
CCC(C)C1NC(=O)C(CC(C)C)NC(=O)C(C(C)C)NC(=O)C2CSSCC(NC1=O)C(=O)N2 (stereo not given) (cyclo(CCVLI); disulfide 1-2; configuration not given here) |  | 0.149 µM |  | > 100 µM |  | 0.339 µM |  | 0.554 µM |  | 0.315 µM |  |  |  | 
C#Cc1cccc(Nc2ncnc3ccc(-c4cnc(N)nc4)cc23)c1 | 3.18 µM | 16.9 µM | 4.09 µM | 36.4 µM | 2.59 µM | 11 µM | 1.98 µM | 12.4 µM | 2.67 µM | 14.8 µM | 2.6 µM | > 100 µM | 0.693 µM | 3.44 µM
Fc1ccc(-c2c(-c3ccncc3)[nH]c3cccnc23)cc1 | > 25 µM | > 25 µM | > 25 µM | > 25 µM | > 25 µM | > 25 µM | > 25 µM | > 25 µM | > 25 µM | > 25 µM | > 25 µM | > 25 µM | > 20.4 µM | > 25 µM
COc1ccc(C(=O)/C=C/c2c(C(F)(F)F)nc3ccccn23)cc1OC | 1.1 µM | > 100 µM | 0.877 µM | 6.25 µM | 0.758 µM | 2.64 µM | 3.38 µM | > 28.4 µM | 2.26 µM | > 100 µM | 0.46 µM | 22.1 µM | 1.97 µM | 8.68 µM
Cc1cc(C(=O)CC(Cl)=C(Cl)Cl)c(Cl)cc1Cl | 18.6 µM | 38.1 µM | 33.5 µM | > 100 µM |  |  | 21.2 µM | 44.1 µM | 22.1 µM | 42.1 µM | 3.54 µM | 27.3 µM | 17.8 µM | 43.1 µM
CN(C)c1ccc2cc3c(cc2c1)Oc1ccccc1N3.[Cl][Zn][Cl] |  |  | 16.8 µM | 83.3 µM | 2.61 µM | 7.3 µM |  |  | 2.85 µM | 9.48 µM | 3.26 µM | 9.71 µM | 3.28 µM | 9.01 µM
CN1CCN(C(=O)[C@@]2(C)CC[C@]3(C)CC[C@]4(C)C(=CC[C@@H]5[C@@]6(C)CC[C@H](OC(=O)c7cccnc7)C(C)(C)[C@@H]6CC[C@]54C)[C@@H]3C2)CC1 | 1.57 µM | 2.95 µM | 1.75 µM | 3.72 µM | 1.44 µM | 3.36 µM |  |  | 1.75 µM | 3.22 µM | 2.35 µM | 6.45 µM | 1.66 µM | 3.33 µM
COC(=O)c1cc2c([nH]c3ccccc32)c(-c2nc3ccccc3cc2CO)n1 | 7.1 µM | > 100 µM | > 100 µM | > 100 µM | 24.9 µM | 50.2 µM |  |  | 6.2 µM | > 100 µM | 25.5 µM | > 100 µM | 21.6 µM | > 100 µM
O=C(CCN1CCCC1)Nc1ccc2c(Nc3ccc(Br)cc3)c3ccccc3nc2c1 |  |  |  |  |  |  |  |  | 1.5 µM | 3.02 µM | 0.494 µM | 2.83 µM | 1.23 µM | 2.57 µM
CCOP(=O)(OCC)C(NC(c1ccccc1)c1ccccc1)c1ccsc1 (stereo not given) |  |  | 14.4 µM | 29.7 µM | 23 µM | 56.9 µM |  |  | 17.2 µM | 31.4 µM |  |  |  | 
NS(=O)(=O)c1ccc(-n2nc(-c3ccccc3)cc2-c2cc(O)ccc2O)cc1 | 46.4 µM | > 100 µM | > 100 µM | > 100 µM |  |  | 90.8 µM | > 100 µM | 90.8 µM | > 100 µM | > 100 µM | > 100 µM | > 100 µM | > 100 µM
CN(CCCCCCCCNc1ccnc2ccccc12)Cc1ccc(-c2ccc(-c3ccc(C#N)cc3)s2)cc1 | 0.248 µM | 0.842 µM | 1.2 µM | 3.23 µM | 1.15 µM | 2.93 µM | 0.685 µM | 2.5 µM | 1.4 µM | 3.25 µM |  |  | 1.13 µM | 2.54 µM
COc1ccc2[nH]cc(Cc3c[nH]c4ccc(OC)cc34)c2c1 | 15.9 µM | 29.4 µM | 20.4 µM | 42.1 µM | 44.2 µM | > 100 µM |  |  | 38.9 µM | > 100 µM |  |  | 28 µM | 54.7 µM
O=C(CS(=O)c1nc2ccccc2nc1-c1ccccc1)Nc1ccc(Cl)cc1 (stereo not given) | 21.8 µM | 61.6 µM | 26.4 µM | 81.2 µM |  |  | 23.2 µM | 71.8 µM | 26.5 µM | 71.7 µM | 23.4 µM | 56.8 µM | 30.4 µM | 84.3 µM

— PubChem BioAssay (NCI)
